The values below come from patent publication US11332463B2, “Spiropiperidine allosteric modulators of nicotinic acetylcholine receptors” (Merck Sharp & Dohme Corp., priority 2018, dated 2022).

SMILES strings stand for the structures. Where two headings read alike, the source gives them in different places. Where only a bound is given, the exact number is not on record here.

The assay deals with T1, human α7 nicotinic acetylcholine receptor (HEK cell line stably expressing human RIC-3 and human α7) (Homo sapiens, UniProt P36544).
T1 construct: host or cells: HEK cell line (PrecisION hnAChR α7/RIC-3)
T1 sequence (P36544 23-502): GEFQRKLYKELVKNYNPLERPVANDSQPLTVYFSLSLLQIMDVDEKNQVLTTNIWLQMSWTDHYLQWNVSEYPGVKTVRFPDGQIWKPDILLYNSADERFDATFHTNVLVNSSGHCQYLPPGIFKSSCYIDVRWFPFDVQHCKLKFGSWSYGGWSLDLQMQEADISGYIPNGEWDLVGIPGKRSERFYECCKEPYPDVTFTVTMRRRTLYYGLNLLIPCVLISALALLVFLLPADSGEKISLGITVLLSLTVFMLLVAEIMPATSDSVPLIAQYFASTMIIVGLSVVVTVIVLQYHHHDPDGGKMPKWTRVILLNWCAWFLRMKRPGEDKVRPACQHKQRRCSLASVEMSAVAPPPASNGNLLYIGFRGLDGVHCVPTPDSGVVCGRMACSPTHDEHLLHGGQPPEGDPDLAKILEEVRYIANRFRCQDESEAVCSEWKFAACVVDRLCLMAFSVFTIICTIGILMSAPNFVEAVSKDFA
In words: Automated patch-clamp electrophysiology functional assay (Assay A), IonFlux HT, whole-cell population patch. In kind it is cell-based. As for the experimental part:
The α7 nAChR positive allosteric modulator (PAM) activity of the present compounds may be tested using assays known in the art. […] The assay was performed using the IonFlux HT in a whole-cell, population patch configuration. See Golden et al. Assay Drug Dev. Technol. […] The compounds were assessed for their ability to modulate the function of the human 7 nAChR stably expressed in a HEK cell line both in the presence, and in the absence of the natural 7 agonist acetylcholine. By performing a series of such measurements at different concentrations, the effective concentration of the 7 nAChR PAMs (EC50) was determined. See Spencer et al. Assay Drug Dev. Technol.
Direct activation of α7 (agonism), and potentiation of acetylcholine-evoked 7 currents was determined as follows:
Automated patch-clamp electrophysiology was performed using the IonFlux HT (Fluxion Biosciences Inc., San Francisco, Calif.) in the whole-cell, population patch configuration. Test compounds were assessed for their ability to modulate the function of the α7 nicotinic acetylcholine receptor both in the presence, and in the absence of the natural α7 agonist acetylcholine. […] Immediately prior to assay, cells were detached by first aspirating growth media, rinsing with Dulbecco's phosphate buffered saline, and then adding 10 mL of Accutase (Innovative Cell Technologies, San Diego, Calif.) to the flask and then incubating at 37° C. for 5 minutes. Detached cells were then recovered by the addition of 40 mL of CHO-serum-free media supplemented with 25 mM HEPES, and rocked gently in a 50 mL conical tube for 20 minutes prior to patch-clamp assay. After recovery, cells were pelleted by centrifugation at 1,000 RPM for 1 minute in a compact bench top centrifuge; recovery media was aspirated and cells were resuspended in external recording solution (150 mM NaCl, 5 mM KCl, 2 mM CaCl2), 1 mM MgCl2, 10 mM HEPES, 12 mM dextrose) to a density of 5.0×10^6 cells/mL. The cell suspension was added to the cell inlet wells on an IonFlux HT population patch plate which had previously been rinsed and primed with deionized H2O. Test compounds were serially diluted in DMSO and then resuspended to the final test concentration in external recording solution, with, or without 40 μM acetylcholine added to the external recording solution; test compounds were then transferred to the IonFlux HT population patch plate. Internal recording solution (110 mM TrisPO4, 28 mM TrisBase, 0.1 mM CaCl2, 2 mM MgCl2, 11 mM EGTA, 4 mM MgATP) was added to the internal recording solution inlet wells on the IonFlux HT patch plate previously loaded with cells and test compounds, and the plate loaded into the IonFlux HT instrument. A protocol was executed on the IonFlux HT to trap the cells, break into the cells, and establish the whole-cell recording configuration; cells were voltage-clamped at a holding potential of −60 mV for the duration of the experiment, all experiments were conducted at room temperature, and the IonFlux HT injection pressure was 8 psi for solution applications. Upon establishing the whole-cell configuration, external recording solution was perfused into the recording chambers for 120 seconds and then 40 μM acetylcholine was applied for 1 second and immediately washed off with external recording solution for 60 seconds. The 40 μM acetylcholine-evoked α7 current served as the current response to which subsequent test compound effects, in the presence, or in the absence of 40 μM acetylcholine would be quantified relative to. Next, test compounds were evaluated at multiple concentrations for their ability to induce, or modulate 7 current responses; three concentrations of test compound were evaluated in ascending dose fashion per recording.

Where [1] appears, read: HEK cells expressing human α7/RIC-3, test compound with or without 40 μM acetylcholine, holding potential −60 mV, room temperature, read-out: α7 nAChR Potency.
Setting [2] is: automated patch-clamp electrophysiology functional assay (Assay A), read-out: α7 nAChR EC50.

As to `CCn1nc(-c2nc([C@@H]3CC34CCN(S(N)(=O)=O)CC4)no2)cc1C` [Example 27, (1R)-1-[5-(1-Ethyl-5-methyl-TH-pyrazol-3-yl)-1,2,4-oxadiazol-3-yl]-6-azaspiro[2.5]octane-6-sulfonamide], the EC50 runs as follows: under setting [1], 500 to 5000 nM; under setting [2], 4000 nM.

As for `NS(=O)(=O)N1CCC2(CC1)[C@@H](c1nc(-c3cccc(F)c3)no1)C2(F)F` [Example H4], the EC50 under setting [1] was in the range of 500 to 5000 nM and the EC50 under setting [2] turned out to be 1200 nM.

Regarding `Cc1ccc(C)c(-c2nc([C@@H]3CC34CCN(S(N)(=O)=O)CC4)no2)c1` [Example 2, (1R)-1-[5-(2,5-Dimethylphenyl)-1,2,4-oxadiazol-3-yl]-6-azaspiro[2.5]octane-6-sulfonamide], the EC50 by setting is: under setting [1], below 100 nM; under setting [2], 82 nM.

Regarding `Cn1ncc(C(F)(F)F)c1-c1nc([C@@H]2CC23CCN(S(N)(=O)=O)CC3)no1` [Example E32], the EC50 is 100 to 500 nM under setting [1] and 330 nM under setting [2].

Regarding `Cn1nc(-c2nc([C@@H]3C(F)(F)C34CCN(S(N)(=O)=O)CC4)no2)c2c1CCC2` [Example E44], the EC50 under setting [1] was in the range of 100 to 500 nM.

As to `NS(=O)(=O)N1CCC2(CC1)C[C@H]2c1noc(-c2cccc(C(F)(F)F)c2)n1` [Example D1], the EC50 is, setting by setting: under setting [1], 500 to 5000 nM; under setting [2], 520 nM.

Regarding `NS(=O)(=O)N1CCC2(CC1)C(c1nc(C3CCCCC3)no1)C2(F)F` (centres unmarked) [Example C6], the EC50 under setting [1] fell in the range of 100 to 500 nM and the EC50 under setting [2] is 420 nM.

For the compound `NS(=O)(=O)N1CCC2(CC1)[C@H](c1noc(-c3conc3C(F)(F)F)n1)C2(F)F` [Example E68], the EC50 under setting [1] lay in the range of 500 to 5000 nM and the EC50 under setting [2] was 680 nM.

Turning to `NS(=O)(=O)N1CCC2(CC1)[C@H](c1noc(-c3c(C4CC4)noc3C(F)(F)F)n1)C2(F)F` [Example E55], the EC50 under setting [1] was below 100 nM and the EC50 under setting [2] amounted to 30 nM.

For the compound `CC1CN(S(N)(=O)=O)CCC12CC2c1nc(-c2ccnc(OCC(F)(F)F)c2)no1` (single isomer, unassigned) [Example I5], the EC50 is 500 to 5000 nM under setting [1] and 1200 nM under setting [2].

As to `NS(=O)(=O)N1CCC2(CC1)C[C@H]2c1noc(-c2cnn(CC(F)(F)F)c2)n1` [Example E22], the EC50 runs as follows: under setting [1], 500 to 5000 nM; under setting [2], 3000 nM.

Turning to `NS(=O)(=O)N1CCC2(CC1)C[C@H]2c1noc(C2CC(c3ccccc3)C2)n1` (mixture of isomers) [Example E15], the EC50 is 500 to 5000 nM under setting [1] and 1500 nM under setting [2].

Consider `NS(=O)(=O)N1CCC2(CC1)C[C@H]2c1noc(-c2cccc(-n3nccc3C(F)(F)F)c2)n1` [Example E70], for which the EC50 is, setting by setting: under setting [1], 500 to 5000 nM; under setting [2], 2300 nM.

With `NS(=O)(=O)N1CCC2(CC1)C[C@H]2c1noc(C2CCc3c(F)cccc32)n1` (mixture of isomers) [Example E13], the EC50 by setting is: under setting [1], 500 to 5000 nM; under setting [2], 1300 nM.

Regarding `NS(=O)(=O)N1CCC2(CC1)C[C@H]2c1noc(-c2ccccc2OC(F)(F)F)n1` [Example D20], the EC50 by setting is: under setting [1], 100 to 500 nM; under setting [2], 200 nM.

Regarding `NS(=O)(=O)N1CCC2(CC1)C(c1nc(-c3c(C(F)(F)F)noc3C3CC3)no1)C2(F)F` (centres unmarked) [Example C16], the EC50 is, setting by setting: under setting [1], below 100 nM; under setting [2], 37 nM.

With `NS(=O)(=O)N1CCC2(CC2c2nc(-c3conc3C3CC3)no2)C(F)C1` (single isomer, unassigned) [Example I8], under setting [1], the EC50 was 5000 to 50000 nM.

Consider `Cc1ncccc1-c1noc(C2C(F)(F)C23CCN(S(N)(=O)=O)CC3)n1` (centres unmarked) [Example C7], for which the EC50 is 500 to 5000 nM under setting [1] and 1100 nM under setting [2].

Turning to `Cn1ncc(C(F)(F)F)c1-c1nc([C@@H]2C(F)(F)C23CCN(S(N)(=O)=O)CC3)no1` [Example 14, (2R)-1,1-Difluoro-2-{5-[1-methyl-4-(trifluoromethyl)-1H-pyrazol-5-yl]-1,2,4-oxadiazol-3-yl}-6-azaspiro[2.5]octane-6-sulfonamide], the EC50 under setting [1] is below 100 nM and the EC50 under setting [2] is 49 nM.

With `Cc1nn(C)c(-c2nc([C@@H]3C(F)(F)C34CCN(S(N)(=O)=O)CC4)no2)c1C` [Example 22, (2R)-1,1-Difluoro-2-[5-(1,3,4-trimethyl-1H-pyrazol-5-yl)-1,2,4-oxadiazol-3-yl]-6-azaspiro[2.5]octane-6-sulfonamide], the EC50 runs as follows: under setting [1], below 100 nM; under setting [2], 99 nM.

For `COc1ccc(Cl)cc1-c1noc(C2CC23CCN(S(=O)(=O)c2c(O)no[n+]2C)CC3)n1` (racemic) [Example B8], under setting [1], the EC50 was 500 to 5000 nM.

Take `COc1ccc(Cl)cc1-c1nc(C2CC23CCN(S(C)(=O)=O)CC3)no1` (single isomer, unassigned) [Example 26, 1-[5-(5-Chloro-2-methoxyphenyl)-1,2,4-oxadiazol-3-yl]-6-(methylsulfonyl)-6-azaspiro[2.5]octane]: the EC50 under setting [1] lay within 100 to 500 nM and the EC50 under setting [2] came out at 480 nM.

With `NS(=O)(=O)N1CCC2(CC2c2nc(-c3conc3C3CC3)no2)C(F)C1` (single isomer, unassigned) [Example I7], the EC50 under setting [1] lay in the range of 500 to 5000 nM and the EC50 under setting [2] amounted to 1500 nM.

On to `NS(=O)(=O)N1CCC2(CC1)[C@H](c1nnc(-c3ccnn3C3CC3)o1)C2(F)F` [Example 16, (2R)-2-[5-(1-Cyclopropyl-1H-pyrazol-5-yl)-1,3,4-oxadiazol-2-yl]-1,1-difluoro-6-azaspiro[2.5]octane-6-sulfonamide], for which the EC50 by setting is: under setting [1], 100 to 500 nM; under setting [2], 450 nM.

Consider `NS(=O)(=O)N1CCC2(CC1)[C@H](c1noc(-c3ccnn3C3CC3)n1)C2(F)F` [Example E34], for which the EC50 runs as follows: under setting [1], 100 to 500 nM; under setting [2], 130 nM.

As for `NS(=O)(=O)N1CCC2(CC1)[C@H](c1noc(-c3cnn4c3CCC4)n1)C2(F)F` [Example E42], the EC50 was 500 to 5000 nM under setting [1] and 1100 nM under setting [2].

Consider `NS(=O)(=O)N1CCC2(CC1)C[C@H]2c1nnc(-c2cccc(C(F)(F)F)c2)o1` [Example F2], for which the EC50 under setting [1] lay within 500 to 5000 nM.

As for `NS(=O)(=O)N1CCC2(CC1)C[C@H]2c1noc(-c2ccc(F)cc2C(F)(F)F)n1` [Example D16], the EC50 under setting [1] is 100 to 500 nM and the EC50 under setting [2] was determined as 160 nM.

With `Cc1ccc(C)c(-c2nc([C@@H]3C(F)(F)C34CCN(S(N)(=O)=O)CC4)no2)c1` [Example 34, (2R)-2-[5-(2,5-Dimethylphenyl)-1,2,4-oxadiazol-3-yl]-1,1-difluoro-6-azaspiro[2.5]octane-6-sulfonamide], the EC50 reads like this: under setting [1], below 100 nM; under setting [2], 4.5 nM.

Regarding `NS(=O)(=O)N1CCC2(CC1)C(c1nc(-c3ccnn3C3CC3)no1)C2(F)F` (centres unmarked) [Example C14], the EC50 is 100 to 500 nM under setting [1] and 150 nM under setting [2].

Turning to `NS(=O)(=O)N1CCC2(CC1)[C@H](c1noc(-c3cnn4c3CSCC4)n1)C2(F)F` [Example 18, (2R)-2-[5-(6,7-Dihydro-4H-pyrazolo[5,1-c][1,4]thiazin-3-yl)-1,2,4-oxadiazol-3-yl]-1,1-difluoro-6-azaspiro[2.5]octane-6-sulfonamide], the EC50 reads like this: under setting [1], 500 to 5000 nM; under setting [2], 800 nM.

For `NS(=O)(=O)N1CCC2(CC1)C(c1nc(-c3ccn4ccnc4c3)no1)C2(F)F` (centres unmarked) [Example C11], the EC50 is 500 to 5000 nM under setting [1] and 2500 nM under setting [2].

As to `COc1ccc(Cl)cc1-c1noc(C2CC23CCN(C(=O)NCc2ccns2)CC3)n1` (racemic) [Example B12], the EC50 under setting [1] fell in the range of 500 to 5000 nM and the EC50 under setting [2] was found to be 3400 nM.
